Source: US9795135B2, “Binary fungicidal composition” (BAYER CORPSCIENCE AKTIENGESELLSCHAFT, priority 2013, dated 2017)

Experiments:
Alternaria solani = test: Alternaria test (tomatoes) / preventive; assay type: in vivo; conditions: 80 ppm a.i.; tomatoes sprayed 24 h before inoculation; evaluated 3 days after inoculation
Description: Alternaria Test (Tomatoes)/Preventive
(§1) Biological control agents and diverse chemical active compounds were tested solo and in a mixture of both. The biological control agents SERENADE® DPZ (comprising the biological control agent B1.1.18, Bacillus subtilis, strain AQ30002, Accession No. NRRL B-50421), SERENADE® ASO (comprising the biological control agent B1.1.1, Bacillus subtilis, strain QST713/AQ713, Accession No. NRRL B-21661) and SONATA® (comprising the biological control agent B1.1.6, Bacillus pumilus, strain QST2808, Accession No. NRRL B-30087) were diluted with water to the desired application rate of 100 ppm a.i. to 500 ppm a.i., referring to the amount of 1.34% Bacillus subtilis or 1.38% Bacillus pumilis product.
The chemical compounds were solved in acetone+dimethylacetamide in a ratio of 1/1+2% PS 16 (Alkylarylpolyglykolether) and diluted with water or the prepared bacteria suspension. Chemical compounds were tested in the concentration of 80 ppm a.i.
In order to test the activity, young plants of tomatoes (21 d after sowing) were sprayed with the preparation of active compound at the stated rate of application. 24 h after application, the plants were inoculated with an aqueous spore suspension (7.500 spores/ml) of Alternaria solani. The wetted plants were then placed in an incubation cabinet at approximately 20° C. and a relative atmospheric humidity of 100% and darkness.
The test was evaluated 3 days after the inoculation. Assessment: % infested leaf. 0% efficacy corresponds to the level of disease in the untreated control while an efficacy of 100% means that no disease is observed.

Sphaerotheca fuliginea = test: Sphaerotheca test (cucumbers) / preventive; assay type: in vivo; conditions: 80 ppm a.i.; cucumber sprayed 24 h before inoculation; evaluated 7 d after inoculation
Description: Sphaerotheca Test (Cucumbers)/Preventive
as §1, with “B-50421), SERENADE” for “B-50421), SERENADE®”
The chemical compounds were solved in acetone+dimethylacetamide in the ratio 1/1+2% PS 16 (Alkylarylpolyglykolether) and diluted with water or the prepared bacteria suspension. Chemical compounds were tested in the concentration of 80 ppm a.i.
In order to test the activity, young plants (kotyledones are fully developed) of cucumber c.v. “Delikatess” were sprayed with the undermentioned preparation of compounds at the stated time of application. 24 h after application, the plants were inoculated with an aqueous spore suspension of Sphaerotheca fuliginea. Infested plants were stored in greenhouse at 22° C. and 70% relative humidity.
The test was evaluated 7 d after inoculation. Assessment: % infested leaf. 0% efficacy corresponds to the level of disease in the untreated control while an efficacy of 100% means that no disease is observed.

Row | SMILES | Efficacy in % Found* (Alternaria solani) | Efficacy in % Found* (Sphaerotheca fuliginea)
1 | CC1(C)N=C(c2cnc3ccccc3c2)c2ccccc2C1(F)F [(I-2)] | 13% | 35%
2 | CC1(C)N=C(c2cnc3ccccc3c2)c2cccc(F)c2C1(C)C [(I-1)] | 37% | 49%
3 | CC1(C)N=C(c2cnc3ccccc3c2)c2cccc(F)c2C1(F)F [(I-3)] | 37% | 32%
